How the values were obtained:
Human P2Y12 receptor = target: T1, Human P2Y12 receptor (Homo sapiens, UniProt Q9H244); experiment: Human P2Y12 receptor cell membrane binding assay with [3H] 2-Mes-ADP; conditions: 1 nM [3H] 2-Mes-ADP, membranes of HEK cells expressing P2Y12 receptor; read-out: Binding activity (IC50)
T1 construct: expressed in transfected cells; host or cells: HEK cells
Method in brief: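 Membranes from HEK cells expressing human P2Y12 were incubated with compound and 1 nM [3H]2-MeS-ADP for 1 h at room temperature. Bound radioactivity was collected by GF/B filtration.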

[1] = test system: Human platelet aggregation caused by ADP; experiment: Inhibition of ADP-induced platelet aggregation (Mimic-human PRP); assay type: cell-based; conditions: 20 μM ADP, human platelet concentrate diluted with PPP, absorption at 595 nm
Method in brief: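 Human PRP diluted with PPP to 3–4×10^8 platelets/mL was preincubated 20 min at room temperature with compound (0.01–30 μM, DMSO), then stimulated with 20 μM ADP. Aggregation read as A595 increase at 3 min versus 0 and 20 μM ADP controls; Ki from sigmoidal non-linear regression.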

T1 sequence (Q9H244 whole entry): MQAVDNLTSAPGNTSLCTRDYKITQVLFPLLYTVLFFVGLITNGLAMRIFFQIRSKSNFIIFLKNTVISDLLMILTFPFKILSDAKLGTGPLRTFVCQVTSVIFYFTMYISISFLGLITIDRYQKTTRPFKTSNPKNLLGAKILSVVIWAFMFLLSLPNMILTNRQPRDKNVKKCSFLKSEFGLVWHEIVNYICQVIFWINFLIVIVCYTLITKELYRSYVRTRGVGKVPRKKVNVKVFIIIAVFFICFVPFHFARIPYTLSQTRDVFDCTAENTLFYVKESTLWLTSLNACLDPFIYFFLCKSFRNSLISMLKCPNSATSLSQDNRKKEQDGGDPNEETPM

Row | Compound | IC50 (Human P2Y12 receptor) | Ki [1]
1 | CCc1cc2c(N3CCn4c(nnc4C(F)(F)F)C3)nc(N3CCNC(=O)C3)nc2s1 [Example 2-2, 4-[6-Ethyl-4-(3-trifluoromethyl-5,6-dihydro-8H-[1,2,4]triazolo[4,3-a]pyrazin-7-yl)-thieno[2,3-d]pyrimidin-2-yl]-piperazin-2-one] | 97 nM | 832 nM
2 | CCc1cc2c(N3CCn4c(nnc4C(F)(F)F)C3)nc(NCCO)nc2s1 [Example 2-5, 2-[6-Ethyl-4-(3-trifluoromethyl-5,6-dihydro-8H-[1,2,4]triazolo[4,3-a]pyrazin-7-yl)-thieno[2,3-d]pyrimidin-2-ylamino]-ethanol] | 710 nM | 857 nM
3 | CCc1cc2c(N3CCn4c(nnc4C(F)(F)F)C3)nc(N(CCO)CCO)nc2s1 [Example 2-6, 2-[[6-Ethyl-4-(3-trifluoromethyl-5,6-dihydro-8H-[1,2,4]triazolo[4,3-a]pyrazin-7-yl)-thieno[2,3-d]pyrimidin-2-yl]-(2-hydroxy-ethyl)-amino]-ethanol] | 835 nM | 715 nM
4 | CCc1cc2c(N3CCn4c(nnc4C(F)(F)F)C3)nc(N3CCNCC3)nc2s1 [Example 2-7, 7-(6-Ethyl-2-piperazin-1-yl-thieno[2,3-d]pyrimidin-4-yl)-3-trifluoromethyl-5,6,7,8-tetrahydro-[1,2,4]triazolo[4,3-a]pyrazine] | 210 nM | 669 nM
5 | CCc1cc2c(N3CCn4c(nnc4C(F)(F)F)C3)nc(N3CCN(C)CC3)nc2s1 [Example 2-10, 7-[6-Ethyl-2-(4-methyl-piperazin-1-yl)-thieno[2,3-d]pyrimidin-4-yl]-3-trifluoromethyl-5,6,7,8-tetrahydro-[1,2,4]triazolo[4,3-a]pyrazine] | 220 nM | 773 nM
6 | CC(C)c1cc2c(N3CCn4c(nnc4C(F)(F)F)C3)nc(N3CCNC(=O)C3)nc2s1 [Example 2-12, 4-[6-isopropyl-4-(3-trifluoromethyl-5,6-dihydro-8H-[1,2,4]triazolo[4,3-a]pyrazin-7-yl)-thieno[2,3-d]pyrimidin-2-yl]-piperazin-2-one] | 460 nM | 2900 nM
7 | CCCCc1cc2c(N3CCn4c(nnc4C(F)(F)F)C3)nc(N3CCNC(=O)C3)nc2s1 [Example 2-14, 4-[6-Butyl-4-(3-trifluoromethyl-5,6-dihydro-8H-[1,2,4]triazolo[4,3-a]pyrazin-7-yl)-thieno[2,3-d]pyrimidin-2-yl]-piperazin-2-one] | 100 nM | 329 nM
8 | CCCCc1cc2c(N3CCn4c(nnc4C(F)(F)F)C3)nc(NCCO)nc2s1 [Example 2-15, 2-[6-Butyl-4-(3-trifluoromethyl-5,6-dihydro-8H-[1,2,4]triazolo[4,3-a]pyrazin-7-yl)-thieno[2,3-d]pyrimidin-2-ylamino]-ethanol] | 240 nM | 223 nM
9 | CCCCc1cc2c(N3CCn4c(nnc4C(F)(F)F)C3)nc(N3CCN(C)CC3)nc2s1 [Example 2-16, 7-[6-Butyl-2-(4-methyl-piperazin-1-yl)-thieno[2,3-d]pyrimidin-4-yl]-3-trifluoromethyl-5,6,7,8-tetrahydro-[1,2,4]triazolo[4,3-a]pyrazine] | 188 nM | 817 nM
10 | CC(C)Cc1cc2c(N3CCn4c(nnc4C(F)(F)F)C3)nc(N3CCNC(=O)C3)nc2s1 [Example 2-17, 4-[6-Isobutyl-4-(3-trifluoromethyl-5,6-dihydro-8H-[1,2,4]triazolo[4,3-a]pyrazin-7-yl)-thieno[2,3-d]pyrimidin-2-yl]-piperazin-2-one] | 367 nM | 440 nM
11 | CC(C)Cc1cc2c(N3CCn4c(nnc4C(F)(F)F)C3)nc(N3CC[C@@H](O)C3)nc2s1 [Example 2-18, (R)-1-[6-Isobutyl-4-(3-trifluoromethyl-5,6-dihydro-8H-[1,2,4]triazolo[4,3-a]pyrazin-7-yl)-thieno[2,3-d]pyrimidin-2-yl]-pyrrolidin-3-ol] | 330 nM | 310 nM
12 | O=C1CN(c2nc(N3CCn4c(nnc4C(F)(F)F)C3)c3cc(CCC(F)(F)F)sc3n2)CCN1 [Example 2-19, 4-[4-(3-Trifluoromethyl-5,6-dihydro-8H-[1,2,4]triazolo[4,3-a]pyrazin-7-yl)-6-(3,3,3-trifluoro-propyl)-thieno[2,3-d]pyrimidin-2-yl]-piperazin-2-one] | 362 nM | 550 nM
13 | O[C@@H]1CCN(c2nc(N3CCn4c(nnc4C(F)(F)F)C3)c3cc(CCC(F)(F)F)sc3n2)C1 [Example 2-20, (R)-1-[4-(3-Trifluoromethyl-5,6-dihydro-8H-[1,2,4]triazolo[4,3-a]pyrazin-7-yl)-6-(3,3,3-trifluoro-propyl)-thieno[2,3-d]pyrimidin-2-yl]-pyrrolidin-3-ol] | 260 nM | 40 nM
14 | CCCc1cc2c(N3CCn4c(nnc4C(F)(F)F)C3)nc(OCC(O)CO)nc2s1 (stereo not drawn) [Example 3-1, 3-[6-Propyl-4-(3-trifluoromethyl-5,6-dihydro-8H-[1,2,4]triazolo[4,3-a]pyrazin-7-yl)-thieno[2,3-d]pyrimidin-2-yloxy]-propane-1,2-diol] | 140 nM | 31 nM
15 | CCCc1cc2c(N3CCn4c(nnc4C(F)(F)F)C3)nc(OCC(CO)CO)nc2s1 [Example 3-2, 2-[6-Propyl-4-(3-trifluoromethyl-5,6-dihydro-8H-[1,2,4]triazolo[4,3-a]pyrazin-7-yl)-thieno[2,3-d]pyrimidin-2-yloxymethyl]-propane-1,3-diol] | 200 nM | 17 nM
16 | CCCc1cc2c(N3CCn4c(nnc4C(F)(F)F)C3)nc(OCCO)nc2s1 [Example 3-3, 2-[6-Propyl-4-(3-trifluoromethyl-5,6-dihydro-8H-[1,2,4]triazolo[4,3-a]pyrazin-7-yl)-thieno[2,3-d]pyrimidin-2-yloxy]-ethanol] | 113 nM | 30 nM
17 | CCCc1cc2c(N3CCn4c(nnc4C(F)(F)F)C3)nc(OCCOC)nc2s1 [Example 3-4, 7-[2-(2-Methoxy-ethoxy)-6-propyl-thieno[2,3-d]pyrimidin-4-yl]-3-trifluoromethyl-5,6,7,8-tetrahydro-[1,2,4]triazolo[4,3-a]pyrazine] | 170 nM | 230 nM
18 | CCCc1cc2c(N3CCn4c(nnc4C(F)(F)F)C3)nc(OC3CCOC3)nc2s1 (stereo not drawn) [Example 3-5, 7-[6-Propyl-2-(tetrahydro-furan-3-yloxy)-thieno[2,3-d]pyrimidin-4-yl]-3-trifluoromethyl-5,6,7,8-tetrahydro-[1,2,4]triazolo[4,3-a]pyrazine] | 91 nM | 26 nM
19 | CCCc1cc2c(N3CCn4c(nnc4C(F)(F)F)C3)nc(OCC3CCCO3)nc2s1 (stereo not drawn) [Example 3-6, 7-[6-Propyl-2-(tetrahydro-furan-2-ylmethoxy)-thieno[2,3-d]pyrimidin-4-yl]-3-trifluoromethyl-5,6,7,8-tetrahydro-[1,2,4]triazolo[4,3-a]pyrazine] | 690 nM | 140 nM
20 | CCCc1cc2c(N3CCn4c(nnc4C(F)(F)F)C3)nc(OC3CCN(C)C3)nc2s1 (stereo not drawn) [Example 3-7, 7-[2-(1-Methyl-pyrrolidin-3-yloxy)-6-propyl-thieno[2,3-d]pyrimidin-4-yl]-3-trifluoromethyl-5,6,7,8-tetrahydro-[1,2,4]triazolo[4,3-a]pyrazine] | 540 nM | 300 nM
21 | CCCc1cc2c(N3CCn4c(nnc4C(F)(F)F)C3)nc(OCC(=O)OC)nc2s1 [Example 3-8, [6-Propyl-4-(3-trifluoromethyl-5,6-dihydro-8H-[1,2,4]triazolo[4,3-a]pyrazin-7-yl)-thieno[2,3-d]pyrimidin-2-yloxy]-acetic acid methyl ester] | 331 nM | 610 nM
22 | CCCc1cc2c(N3CCn4c(nnc4C(F)(F)F)C3)nc(OCC(=O)O)nc2s1 [Example 3-9, [6-Propyl-4-(3-trifluoromethyl-5,6-dihydro-8H-[1,2,4]triazolo[4,3-a]pyrazin-7-yl)-thieno[2,3-d]pyrimidin-2-yloxy]-acetic acid] | 826 nM | 3700 nM
23 | CCCc1cc2c(N3CCn4c(nnc4C(F)(F)F)C3)nc(OCCCO)nc2s1 [Example 3-10, 3-[6-Propyl-4-(3-trifluoromethyl-5,6-dihydro-8H-[1,2,4]triazolo[4,3-a]pyrazin-7-yl)-thieno[2,3-d]pyrimidin-2-yloxy]-propan-1-ol] | 140 nM | 64 nM
24 | CCCc1cc2c(N3CCn4c(nnc4C(F)(F)F)C3)nc(OCCC(=O)O)nc2s1 [Example 3-11, 3-[6-Propyl-4-(3-trifluoromethyl-5,6-dihydro-8H-[1,2,4]triazolo[4,3-a]pyrazin-7-yl)-thieno[2,3-d]pyrimidin-2-yloxy]-propionic acid] | 72 nM | 70 nM
25 | CCCc1cc2c(N3CCn4c(nnc4C(F)(F)F)C3)nc(OCCC(=O)OC(C)C)nc2s1 [Example 3-12, 3-[6-Propyl-4-(3-trifluoromethyl-5,6-dihydro-8H-[1,2,4]triazolo[4,3-a]pyrazin-7-yl)-thieno[2,3-d]pyrimidin-2-yloxy]-propionic acid isopropyl ester] | 160 nM | 50 nM
26 | CCCc1cc2c(N3CCn4c(nnc4C(F)(F)F)C3)nc(OCCC(=O)OCOC(=O)C(C)(C)C)nc2s1 [Example 3-13, 2,2-Dimethyl-propionic Acid 3-[6-propyl-4-(3-trifluoromethyl-5,6-dihydro-8H-[1,2,4]triazolo[4,3-a]pyrazin-7-yl)-thieno[2,3-d]pyrimidin-2-yloxy]-propionyloxymethyl ester] | 410 nM | 430 nM
27 | CCCc1cc2c(N3CCn4c(nnc4C(F)(F)F)C3)nc(OCCC(OC)OC)nc2s1 [Example 3-14, 7-[2-(3,3-Dimethoxy-propoxy)-6-propyl-thieno[2,3-d]pyrimidin-4-yl]-3-trifluoromethyl-5,6,7,8-tetrahydro-[1,2,4]triazolo[4,3-a]pyrazine] | 240 nM | 1100 nM

Reference: patent publication US20110166121A1 (LG LIFE SCIENCES LTD., priority 2008, published 2011)
